What was measured:
[1] = biological target: T1, Neuronal acetylcholine receptor; alpha4/beta2 (Homo sapiens, UniProt P17787+P43681); test: Antagonist activity at human alpha4beta2 nAChR expressed in HEK tsA201 cells assessed as inhibition of epibatidine-induced intracellular calcium accumulation at 50 uM after 1 hr by fluorescence assay relative to control; assay type: functional, cell-based; settings: HEK293, values are per cent of control
[2] = biological target: Neuronal acetylcholine receptor; alpha3/beta4 (Homo sapiens, UniProt P30926+P32297); test: Antagonist activity at human alpha3beta4 nAChR expressed in HEK tsA201 cells assessed as inhibition of epibatidine-induced intracellular calcium accumulation after 1 hr by fluorescence assay; assay type: functional, cell-based, HEK293
[3] = biological target: T1, Neuronal acetylcholine receptor; alpha4/beta2; test: Antagonist activity at human alpha4beta2 nAChR expressed in HEK tsA201 cells assessed as inhibition of epibatidine-induced intracellular calcium accumulation after 1 hr by fluorescence assay; assay type: functional, cell-based, HEK293

T1 sequence (P17787 whole entry): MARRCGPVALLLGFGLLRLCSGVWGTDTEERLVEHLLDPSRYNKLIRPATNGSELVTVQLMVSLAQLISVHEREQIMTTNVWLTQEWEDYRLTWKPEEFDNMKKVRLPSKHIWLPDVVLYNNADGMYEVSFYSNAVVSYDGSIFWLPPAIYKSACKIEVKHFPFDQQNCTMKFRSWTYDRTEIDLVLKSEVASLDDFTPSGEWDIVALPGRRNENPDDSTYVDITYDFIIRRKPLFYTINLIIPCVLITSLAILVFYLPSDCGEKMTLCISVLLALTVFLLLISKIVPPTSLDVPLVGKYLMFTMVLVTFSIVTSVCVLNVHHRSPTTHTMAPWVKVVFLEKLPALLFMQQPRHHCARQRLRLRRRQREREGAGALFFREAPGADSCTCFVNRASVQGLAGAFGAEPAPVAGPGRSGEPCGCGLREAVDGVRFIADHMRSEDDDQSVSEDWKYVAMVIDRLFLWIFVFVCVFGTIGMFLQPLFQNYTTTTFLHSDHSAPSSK
T1 sequence (P43681 whole entry): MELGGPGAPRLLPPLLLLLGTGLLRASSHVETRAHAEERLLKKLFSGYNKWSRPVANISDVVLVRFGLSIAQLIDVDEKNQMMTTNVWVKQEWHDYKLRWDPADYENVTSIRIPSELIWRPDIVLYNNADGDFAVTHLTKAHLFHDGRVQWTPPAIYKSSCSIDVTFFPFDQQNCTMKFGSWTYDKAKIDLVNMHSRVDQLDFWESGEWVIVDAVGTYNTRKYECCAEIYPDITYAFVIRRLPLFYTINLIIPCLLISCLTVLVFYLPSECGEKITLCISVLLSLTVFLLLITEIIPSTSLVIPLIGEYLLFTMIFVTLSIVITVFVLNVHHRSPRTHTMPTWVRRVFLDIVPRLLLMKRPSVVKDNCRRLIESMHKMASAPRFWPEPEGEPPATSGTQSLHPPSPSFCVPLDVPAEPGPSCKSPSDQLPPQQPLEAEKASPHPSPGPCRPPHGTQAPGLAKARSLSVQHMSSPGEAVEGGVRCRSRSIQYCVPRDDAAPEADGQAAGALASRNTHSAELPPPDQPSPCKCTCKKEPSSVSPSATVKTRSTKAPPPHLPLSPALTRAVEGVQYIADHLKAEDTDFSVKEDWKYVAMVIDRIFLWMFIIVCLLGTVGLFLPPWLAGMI
Chain of Neuronal acetylcholine receptor; alpha3/beta4 (P30926 whole entry): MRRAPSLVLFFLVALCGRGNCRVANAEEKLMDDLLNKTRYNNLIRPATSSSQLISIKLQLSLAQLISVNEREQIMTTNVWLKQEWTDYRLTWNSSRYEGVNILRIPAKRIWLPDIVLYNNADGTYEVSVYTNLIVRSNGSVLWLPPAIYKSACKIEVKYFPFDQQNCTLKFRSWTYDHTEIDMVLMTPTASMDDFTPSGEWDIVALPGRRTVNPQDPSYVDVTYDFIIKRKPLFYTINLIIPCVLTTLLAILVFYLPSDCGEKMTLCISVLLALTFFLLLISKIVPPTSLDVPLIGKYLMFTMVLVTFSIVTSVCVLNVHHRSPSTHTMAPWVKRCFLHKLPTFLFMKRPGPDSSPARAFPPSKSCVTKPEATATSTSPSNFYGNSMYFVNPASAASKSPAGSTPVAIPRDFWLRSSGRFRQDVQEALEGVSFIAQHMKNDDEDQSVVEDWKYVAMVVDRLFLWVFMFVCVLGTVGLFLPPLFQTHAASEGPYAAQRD
Chain of Neuronal acetylcholine receptor; alpha3/beta4 (P32297 whole entry): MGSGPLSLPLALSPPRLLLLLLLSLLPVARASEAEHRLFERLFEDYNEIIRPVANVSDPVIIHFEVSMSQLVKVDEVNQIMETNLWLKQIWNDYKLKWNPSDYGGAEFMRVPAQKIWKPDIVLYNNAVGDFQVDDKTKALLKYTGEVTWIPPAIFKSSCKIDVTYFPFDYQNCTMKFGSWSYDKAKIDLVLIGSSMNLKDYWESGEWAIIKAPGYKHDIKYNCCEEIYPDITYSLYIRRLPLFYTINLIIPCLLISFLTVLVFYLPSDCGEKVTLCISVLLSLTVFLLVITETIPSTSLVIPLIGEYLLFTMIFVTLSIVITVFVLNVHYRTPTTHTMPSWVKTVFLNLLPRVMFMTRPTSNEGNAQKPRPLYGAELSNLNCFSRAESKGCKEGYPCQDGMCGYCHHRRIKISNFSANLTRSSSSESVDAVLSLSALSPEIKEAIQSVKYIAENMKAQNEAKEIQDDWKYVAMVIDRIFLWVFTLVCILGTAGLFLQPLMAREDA

Structure (SMILES) | residual activity [1] | IC50 [2] | IC50 [3]
Cn1c(=O)c2[nH]c(CN3CCc4ccccc4C3)nc2n(C)c1=O | 83.2% | – | –
O=C(O)CCC(=O)Nc1cc(F)ccc1F | 83.3% | – | –
Cc1cccc(C(C)C)c1NC(=O)c1ccccc1NS(C)(=O)=O | 74% | – | –
O=C(Nc1ccc(F)cc1)C1CC(=O)n2c(nc3ccccc32)N1 (configuration not stated) | 72.5% | – | –
CC(=O)Nc1ccc2c(c1)nc(CN1CCCCC1)n2C | 86.2% | – | –
Cc1cccc(NC(=O)c2cc(N)ccc2N2CCCCC2)n1 | 47.7% | 46.3 µM | 14.4 µM
C=CCN1C(=O)[C@](O)(CC(=O)c2ccco2)c2cc(Cl)ccc21 | 51.1% | > 100 µM | 6.1 µM

More lines, now with the values ahead:

residual activity [1] | IC50 [2] | IC50 [3] | Structure (SMILES)
76.2% | – | – | O=C(CSc1nnc(-c2ccccn2)o1)Nc1cccc2ccccc12
49.5% | > 100 µM | 20.6 µM | O=C(O)c1cc(NCc2cccs2)ccc1N1CCOCC1
71% | – | – | COC(=O)c1ccc(N2CCN(C)CC2)c(NC(=O)Cc2ccccc2)c1
59.8% | – | – | O=C(CN1CCN(c2ccccc2)CC1)NCc1ccco1
59.9% | – | – | C=C(C)CN1C(=O)C(O)(CC(=O)c2ccccn2)c2ccccc21 (configuration not stated)
103% | – | – | CC(=O)N1CCN(c2ccc(NC(=O)c3cccnc3)cc2Cl)CC1
46.9% | 19.6 µM | 9.8 µM | O=C(CN1CCN(S(=O)(=O)c2ccc(F)cc2)CC1)Nc1ccccc1F

Source: ChEMBL document CHEMBL2021888, “Discovery of Novel α4β2 Neuronal Nicotinic Receptor Modulators through Structure-Based Virtual Screening” (ACS Med Chem Lett, 2011)
